Experimental findings from PubChem BioAssay AID248 (DTP/NCI, 2004) are described below.

Where “and” joins values, the source holds several entries; their conditions need not be identical. Equal values may be shown once. Inconclusive results and toxic doses are left out.

The assay concerns L1210 leukemia ip in BDF1 mice, survival T/C. Description: NCI In Vivo Anticancer Drug Screen. Data for tumor model L1210 Leukemia (intraperitoneal) in B6D2F1 (BDF1) mice. Conditions: endpoint: mean survival time, higher = longer survival. The method in brief:
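Mice bearing the transplanted tumor received compound or vehicle. Survival of the treated group was divided by that of the vehicle-treated control group to give the ratio.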

Setting [1] is: dose: 100.0 mg/kg/injection, schedule: Q01DX001 (ip), vehicle: saline.
Setting [2] is: dose: 100.0 mg/kg/injection, schedule: Q04DX003 (ip), vehicle: saline.
Where [3] appears, read: dose: 200.0 mg/kg/injection, schedule: Q01DX001 (ip), vehicle: saline.
The mark [4] stands for this setting: dose: 200.0 mg/kg/injection, schedule: Q04DX003 (ip), vehicle: saline.
Where [5] appears, read: dose: 400.0 mg/kg/injection, schedule: Q01DX001 (ip), vehicle: saline.
[6] abbreviates: dose: 400.0 mg/kg/injection, schedule: Q04DX003 (ip), vehicle: saline.
Where [7] appears, read: dose: 100.0 mg/kg/injection, schedule: Q04DX003 (ip), vehicle: saline with Tween-80.
Setting [8] is: dose: 200.0 mg/kg/injection, schedule: Q04DX003 (ip), vehicle: saline with Tween-80.
[9] abbreviates: dose: 400.0 mg/kg/injection, schedule: Q04DX003 (ip), vehicle: saline with Tween-80.
[10] abbreviates: dose: 100.0 mg/kg/injection, schedule: Q01DX009 (ip), vehicle: saline.
Setting [11] is: dose: 200.0 mg/kg/injection, schedule: Q01DX009 (ip), vehicle: saline.
[12] abbreviates: dose: 400.0 mg/kg/injection, schedule: Q01DX009 (ip), vehicle: saline.
Setting [13] is: dose: 50.0 mg/kg/injection, schedule: Q01DX009 (ip), vehicle: Klucel (hydroxypropylcellulose) (HPC).
[14] abbreviates: dose: 100.0 mg/kg/injection, schedule: Q01DX009 (ip), vehicle: Klucel (hydroxypropylcellulose) (HPC).
The mark [15] stands for this setting: dose: 200.0 mg/kg/injection, schedule: Q01DX009 (ip), vehicle: Klucel (hydroxypropylcellulose) (HPC).
Where [16] appears, read: dose: 100.0 mg/kg/injection, schedule: Q04DX003 (ip), vehicle: Klucel (hydroxypropylcellulose) (HPC).
[17] abbreviates: dose: 200.0 mg/kg/injection, schedule: Q04DX003 (ip), vehicle: Klucel (hydroxypropylcellulose) (HPC).
The mark [18] stands for this setting: dose: 400.0 mg/kg/injection, schedule: Q04DX003 (ip), vehicle: Klucel (hydroxypropylcellulose) (HPC).
The mark [19] stands for this setting: dose: 300.0 mg/kg/injection, schedule: Q01DX009 (ip), vehicle: Klucel (hydroxypropylcellulose) (HPC).

As for `CCOC(C)=N`, the T/C by setting is: (dose: 50.0 mg/kg/injection, schedule: Q01DX001 (ip), vehicle: saline) 100 % of control; (dose: 50.0 mg/kg/injection, schedule: Q01DX008 (ip), vehicle: saline) 102 % of control; under setting [1], 89 % of control and 97 % of control; (dose: 100.0 mg/kg/injection, schedule: Q01DX008 (ip), vehicle: saline) 112 % of control; under setting [2], 107 % of control; under setting [3], 105 % of control and 111 % of control. The T/C reads like this: (dose: 200.0 mg/kg/injection, schedule: Q01DX008 (ip), vehicle: saline) 115 % of control; under setting [4], 107 % of control; under setting [5], 115 % of control; under setting [6], 110 % of control.
Regarding `COP(=O)(OC)C(OC(=O)C(C)(C)Br)=C(C)C`, the T/C is 102 % of control under setting [7], 106 % of control under setting [8] and 113 % of control under setting [9].
`CN1CN(c2ccccc2)C2(CCN(Cc3ccccc3)CC2)C1=O`: the T/C is 101 % of control under setting [1], 101 % of control under setting [3] and 103 % of control under setting [5].
For `CCN(CC)CCCC(C)Nc1ncnc2c1C(c1ccccc1)C(C)(C)O2` (stereo unspecified), the T/C under setting [10] was 106 % of control, the T/C under setting [11] was 101 % of control and the T/C under setting [12] is 101 % of control.
In the case of `NC(=O)c1[nH]cnc1/N=N/N(CCF)CCF`, the T/C is 106 % of control (dose: 1.87 mg/kg/injection, schedule: Q01DX009 (ip), vehicle: other); 123 % of control (dose: 3.75 mg/kg/injection, schedule: Q01DX009 (ip), vehicle: other); 106 % of control (dose: 10.0 mg/kg/injection, schedule: Q01DX001 (ip), vehicle: other); 153 % of control (dose: 15.0 mg/kg/injection, schedule: Q01DX009 (ip), vehicle: other).
Consider `CCC(C#N)C(=O)NC(N)=O` (stereo unspecified), for which the T/C is, setting by setting: under setting [2], 97 % of control; under setting [4], 92 % of control; under setting [6], 91 % of control.
Take `O=C1C=C(Nc2ccccc2)C(=O)N1c1ccccc1`: the T/C reads like this: under setting [1], 95 % of control; under setting [3], 95 % of control.
For `O=C1OC2(c3ccc(O)cc3Oc3cc(O)ccc32)C2C3C=CC(C3)C12` (stereo unspecified), the T/C runs as follows: under setting [13], 98 % of control; under setting [14], 104 % of control; under setting [2], 98 % of control; under setting [15], 97 % of control; under setting [4], 92 % of control; under setting [6], 95 % of control.
For `O=C1C(=C(C(F)(F)Cl)C(F)(F)Cl)C2CCC1C2` (stereo unspecified), the T/C reads like this: (dose: 6.25 mg/kg/injection, schedule: Q01DX009 (ip), vehicle: saline with Tween-80) 95 % of control; (dose: 12.0 mg/kg/injection, schedule: Q01DX001 (ip), vehicle: saline with Tween-80) 104 % of control; (dose: 12.5 mg/kg/injection, schedule: Q01DX009 (ip), vehicle: saline with Tween-80) 95 % of control; (dose: 25.0 mg/kg/injection, schedule: Q01DX001 (ip), vehicle: saline with Tween-80) 100 % of control; (dose: 25.0 mg/kg/injection, schedule: Q01DX009 (ip), vehicle: saline with Tween-80) 102 % of control and 92 % of control; (dose: 50.0 mg/kg/injection, schedule: Q01DX001 (ip), vehicle: saline with Tween-80) 100 % of control. The T/C (dose: 50.0 mg/kg/injection, schedule: Q01DX009 (ip), vehicle: saline with Tween-80) is 107 % of control and the T/C (dose: 100.0 mg/kg/injection, schedule: Q01DX001 (ip), vehicle: saline with Tween-80) is 91 % of control.
For `CC(C(=O)c1ccc(F)cc1)C(O)(C(F)(F)F)C(F)(F)F` (stereo unspecified), the T/C by setting is: under setting [16], 94 % of control; under setting [17], 95 % of control; under setting [18], 103 % of control.
As to `Clc1nc(Cl)nc(SCCSc2nc(Cl)nc(Cl)n2)n1`, the T/C reads like this: under setting [2], 97 % of control; under setting [4], 110 % of control; under setting [6], 98 % of control.
Take `CC(=O)OC1=C(Cl)C(=O)C(OC(C)=O)=C(Cl)C1=O`: the T/C reads like this: (dose: 50.0 mg/kg/injection, schedule: Q04DX003 (ip), vehicle: Klucel (hydroxypropylcellulose) (HPC)) 106 % of control; under setting [16], 100 % of control; under setting [17], 100 % of control; under setting [18], 92 % of control.
Turning to `COc1cc(NC(=O)Nc2ccc(Cl)c(C(F)(F)F)c2)ccc1NC(C)=O`, the T/C runs as follows: (dose: 50.0 mg/kg/injection, schedule: Q01DX009 (ip), vehicle: carboxymethylcellulose (CMC)) 96 % of control and 103 % of control; (dose: 100.0 mg/kg/injection, schedule: Q01DX001 (ip), vehicle: carboxymethylcellulose (CMC)) 103 % of control and 105 % of control; (dose: 100.0 mg/kg/injection, schedule: Q04DX002 (ip), vehicle: carboxymethylcellulose (CMC)) 94 % of control; (dose: 100.0 mg/kg/injection, schedule: Q04DX003 (ip), vehicle: carboxymethylcellulose (CMC)) 101 % of control and 105 % of control; (dose: 200.0 mg/kg/injection, schedule: Q01DX001 (ip), vehicle: carboxymethylcellulose (CMC)) 100 % of control and 102 % of control; (dose: 200.0 mg/kg/injection, schedule: Q04DX002 (ip), vehicle: carboxymethylcellulose (CMC)) 96 % of control and 90 % of control. Also, the T/C was 92 % of control and 99 % of control (dose: 200.0 mg/kg/injection, schedule: Q04DX003 (ip), vehicle: carboxymethylcellulose (CMC)); 97 % of control and 105 % of control (dose: 400.0 mg/kg/injection, schedule: Q01DX001 (ip), vehicle: carboxymethylcellulose (CMC)); 96 % of control and 90 % of control (dose: 400.0 mg/kg/injection, schedule: Q04DX002 (ip), vehicle: carboxymethylcellulose (CMC)); 92 % of control (dose: 400.0 mg/kg/injection, schedule: Q04DX003 (ip), vehicle: carboxymethylcellulose (CMC)).
With `N=Cc1c(O)[nH]c(=O)[nH]c1=O`, the T/C runs as follows: under setting [10], 95 % of control; under setting [2], 97 % of control; under setting [11], 90 % of control; under setting [4], 93 % of control; under setting [12], 91 % of control; under setting [6], 95 % of control.
For the compound `COc1ccc2c(c1)CC[C@@H]1[C@@H]2CC[C@@]2(C)[C@H]1CC[C@@]2(O)C(F)=C(F)F`, the T/C is 96 % of control (dose: 38.0 mg/kg/injection, schedule: Q01DX015 (sc), vehicle: steriod suspending solution); 116 % of control under setting [13]; 88 % of control (dose: 75.0 mg/kg/injection, schedule: Q01DX015 (sc), vehicle: steriod suspending solution); 92 % of control (dose: 100.0 mg/kg/injection, schedule: Q01DX001 (sc), vehicle: steriod suspending solution); 107 % of control under setting [14]; 94 % of control (dose: 150.0 mg/kg/injection, schedule: Q01DX015 (sc), vehicle: steriod suspending solution). For the same compound, the T/C (dose: 200.0 mg/kg/injection, schedule: Q01DX001 (sc), vehicle: steriod suspending solution) was 100 % of control; the T/C under setting [15] was 100 % of control; the T/C under setting [19] is 104 % of control; the T/C (dose: 300.0 mg/kg/injection, schedule: Q01DX015 (sc), vehicle: steriod suspending solution) is 94 % of control; the T/C (dose: 400.0 mg/kg/injection, schedule: Q01DX001 (sc), vehicle: steriod suspending solution) is 97 % of control; the T/C (dose: 600.0 mg/kg/injection, schedule: Q01DX015 (sc), vehicle: steriod suspending solution) was 94 % of control.
For `CCOC(=O)/C(C)=C\c1c(Br)cc(Br)c(N)c1Br`, the T/C (dose: 75.0 mg/kg/injection, schedule: Q01DX009 (ip), vehicle: Klucel (hydroxypropylcellulose) (HPC)) was 97 % of control; the T/C (dose: 150.0 mg/kg/injection, schedule: Q01DX009 (ip), vehicle: Klucel (hydroxypropylcellulose) (HPC)) is 97 % of control; the T/C under setting [19] is 95 % of control.
As to `O=C(/C=C/c1ccc([N+](=O)[O-])cc1)c1ccc(Cl)cc1`, the T/C by setting is: under setting [7], 104 % of control; under setting [8], 94 % of control; under setting [9], 91 % of control.
